Test results published in publication PMC10375191, “Transformable Neuropeptide Prodrug with Tumor Microenvironment Responsiveness for Tumor Growth and Metastasis Inhibition of Triple‐Negative Breast Cancer” (Advanced Science, 2023).
Starred links: 1 amine or outer side, 2 acyl side, 3 side chain; linkers in the order of their positions; H or OH if unused. Residues, ends and D or L forms follow the SMILES beside them. *: point of attachment. Doxorubicin(3'-N) = COc1cccc2c1C(=O)c1c(O)c3c(c(O)c1C2=O)C[C@@](O)(C(=O)CO)C[C@@H]3O[C@H]1C[C@H](N*)[C@H](O)[C@H](C)O1; Suc = O=C(CCC(=O)[*:2])[*:1]

What was measured:
[1] = Pharmacokinetics in plasma; type: in vivo, mouse; conditions: ICR female mice, 10 mg kg^−1 DOX content i.v.
Procedure: The drug contents were quantified by HPLC (1260 Infinity II, Agilent, USA) as described in the methods of characterization in Supporting Information and the pharmacokinetic parameters were analyzed using the Phoenix WinNonlin 8.3.5 software.

[2] = tested on: MDA‐MB‐231 cells; test: Flow cytometry: cellular uptake and cellular MMPs-responsive drug release; type: cell-based, human
Procedure: MDA‐MB‐231 cells were plated in 6‐well plates (2 × 10^5 cells per well) for 24 h. […] The mean fluorescence intensity (MFI) of 1 × 10^4 cells was detected by flow cytometry (FACSCalibur, BD, USA). Besides, 5 mM ethylenediaminetetraacetic acid (EDTA) purchased from Sigma was used as a model inhibitor to inhibit MMPs activity.

[3] = tested on: MDA‐MB‐231 cells; test: Transwell invasion assay (Matrigel); type: cell-based, human; conditions: MDA-MB-231, Matrigel transwell, 1 µg mL^−1 in lower chamber, 24 h, versus PBS group, n = 3
Procedure: 1 × 10^6 MDA‐MB‐231 cells were suspended on the top chambers of the transwell with Matrigel. Cells were cultured in DMEM without FBS overnight. […] After incubation for 24 h, the cells on the upper wells were cautiously erased with a cotton swab. Cells on the lower surface were fixed with 4% PFA and stained with crystal violet. After multiple washing with PBS, the cells that passed through the membrane were recorded with a microscope (DFC 450C, Leica, Germany).

[4] = biological target: T1, matrix metalloproteinase‐2 (MMP‐2) (Homo sapiens, UniProt P08253); test: MMPs-responsive cleavage of DOX-P18 by MMP-2 (HPLC, MS, fluorescence); type: in vitro ADME; conditions: 1 mg mL^−1 DOX-P18 with 1 µg mL^−1 MMP-2, 37 °C; HPLC at 6, 12, 24, 72 h, monitored at 500 nm; product DOX-P3 identified by MS
T1 construct: purchased Novoprotein Scientific Inc. (Shanghai, China)
T1 sequence (P08253 110-660): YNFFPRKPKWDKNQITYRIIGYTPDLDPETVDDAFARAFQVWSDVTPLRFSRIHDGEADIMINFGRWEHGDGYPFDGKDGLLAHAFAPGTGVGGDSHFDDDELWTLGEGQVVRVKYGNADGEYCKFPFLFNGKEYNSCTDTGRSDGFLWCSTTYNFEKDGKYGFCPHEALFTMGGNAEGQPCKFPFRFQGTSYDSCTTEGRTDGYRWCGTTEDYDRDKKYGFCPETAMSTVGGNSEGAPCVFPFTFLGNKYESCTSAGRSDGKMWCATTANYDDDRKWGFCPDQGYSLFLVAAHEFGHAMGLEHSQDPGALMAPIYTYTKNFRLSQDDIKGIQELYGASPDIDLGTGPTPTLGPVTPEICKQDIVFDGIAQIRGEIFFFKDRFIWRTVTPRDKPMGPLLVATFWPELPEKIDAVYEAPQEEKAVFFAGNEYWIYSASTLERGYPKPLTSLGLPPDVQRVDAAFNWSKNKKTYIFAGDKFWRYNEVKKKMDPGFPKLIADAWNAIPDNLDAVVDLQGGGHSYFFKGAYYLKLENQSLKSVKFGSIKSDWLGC
Procedure: The enzymatic reaction process was monitored by HPLC at 6, 12, 24, and 72 h.
Doxorubicin hydrochloride (DOX·HCl), trifluoroacetic acid (TFA), and anhydrous N,N-Dimethylformamide (DMF) were purchased from Aladdin (Shanghai, China).
Thioanisole (TA), 1,2-ethanedithiol (EDT), and phenol were obtained from Macklin (Shanghai, China). 4-methylmorpholine (NMM), N,N’-diisopropylcarbodiimide (DIC), and 1-hydroxybenzotriazole (HOBt) were purchased from OKA (Beijing, China). Rink amide methylbenzhydrylamine (MBHA) resin, Wang resin and all Fmoc-protected amino acids were obtained from NJPeptide (Nanjing, China). Ethanol, diethyl ether, acetonitrile (ACN), and methanol were purchased from Sinopharm Chemical Reagent Co., Ltd (Shanghai, China). Piperidine, p-nitrophenol, and succinic anhydride (Succ) were obtained from Sigma-Aldrich (Shanghai, China). Recombinant human matrix metalloproteinase-2 (MMP-2) and matrix metalloproteinase-9 (MMP-9) produced by Novoprotein Scientific Inc. (Shanghai, China) are supplied as a 0.2 μm filtered buffer mixture of 20 mM Tris-HCl, 2 mM CaCl2, 150 mM NaCl, 0.05 % Brij 35 (w/v), pH 7.5, and their specific activity is >1300 pmol/min/µg as measured under the described conditions. All commercial reagents and HPLC solvents were used with […]

[5] = MDA-MB-231, 40 µg mL^−1, 1 h 37 °C, endocytosis inhibitors, flow cytometry MFI

In the case of `CC[C@H](C)[C@H](NC(=O)[C@@H]1CCCN1C(=O)[C@H](CC(N)=O)NC(=O)[C@H](CC(N)=O)NC(=O)[C@H](Cc1ccc(O)cc1)NC(=O)[C@H](Cc1c[nH]cn1)NC(=O)[C@H](CCCNC(=N)N)NC(=O)CNC(=O)[C@H](CCCNC(=N)N)NC(=O)[C@@H](NC(=O)CNC(=O)[C@H](CC(C)C)NC(=O)[C@@H]1CCCN1C(=O)CCC(=O)N[C@H]1C[C@H](O[C@H]2C[C@](O)(C(=O)CO)Cc3c(O)c4c(c(O)c32)C(=O)c2c(OC)cccc2C4=O)O[C@@H](C)[C@H]1O)C(C)C)C(=O)N[C@@H](Cc1c[nH]c2ccccc12)C(=O)N[C@@H](CCCNC(=N)N)C(=O)N[C@@H](CCC(N)=O)C(=O)N[C@@H](CCCNC(=N)N)C(=O)N[C@@H](Cc1ccc(O)cc1)C(N)=O` [DOX‐P18] ({Doxorubicin(3'-N)-Suc}-PLGVRGRHYNNPIWRQRY-NH2), the “Plasma clearance (CL) relative to DOX” value [1] is reported as 1/4, the “Total plasma concentration (AUC) relative to DOX” value [1] is reported as “four times higher” and the “Cellular uptake at 4 °C (MFI)” value ([2]; MDA-MB-231, 40 µg mL^−1 (by DOX content), DMEM 10% FBS, 1 h, 4 °C, flow cytometry, n = 3) is reported as “strongly suppressed”. The “Share of uptake by Y1R-mediated endocytosis” value ([2]; MDA-MB-231, 40 µg mL^−1, 1 h 37 °C, Y1R antagonist BIBP3304 20 µM, flow cytometry MFI) was 20%, the “Share of uptake by caveolin-mediated endocytosis” value [2, 5] was 14% and the “Share of uptake by micropinocytosis” value [2, 5] was 27%. For the same compound, the “Cell fluorescence intensity relative to EDTA-treated group (cellular drug release)” value ([2]; MDA-MB-231, 48 h, without vs with 5 mM EDTA (MMPs inhibited), flow cytometry, n = 3) was “almost three times higher”, the “Inhibition on cell invasion” value [3] was 50% and the “Enzymatic cleavage by MMP-2” value [4] was “efficiently cleaved”.
